Data published in ChEMBL document CHEMBL4373676, “Non-lethal growth inhibition by arresting the starch utilization system of clinically relevant human isolates of Bacteroides dorei” (Medchemcomm, 2019).
The source made the active and inactive calls. The rule behind the calls is not given here.

Key:
[1] = Inhibition of starch utilization system in Bacteroides dorei JRO3 assessed as increase in lag time at 0.1 to 10 uM up to 48 hrs in presence of potato starch by spectrophotometric analysis; settings: Phocaeicola dorei
[2] = tested on: Phocaeicola dorei; assay: Effect on growth of Bacteroides dorei JRO1 assessed as microbial growth at 100 uM measured at 30 mins interval with 15 secs shaking for up to 48 hrs in presence of glucose by spectrophotometric analysis relative to untreated control; format: organism-based; settings: in vivo
[3] = Inhibition of starch utilization system in Bacteroides dorei JRO3 assessed as bacterial growth at 1 uM after 14 hrs in presence of potato starch by spectrophotometric analysis relative to untreated control; set-up: scale not given: the % may be the effect or the level left; settings: Phocaeicola dorei
[4] = Inhibition of starch utilizing system in Bacteroides dorei JRO1 assessed as microbial growth at 100 uM measured at 30 mins interval with 15 secs shaking for up to 48 hrs in presence of potato starch by spectrophotometric analysis relative to untreated control; set-up: scale not given: the % may be the effect or the level left; settings: Phocaeicola dorei
[5] = Inhibition of starch utilization system in Bacteroides dorei JRO3 assessed as increase in doubling time at 0.1 to 10 uM in presence of potato by spectrophotometric analysis; settings: Phocaeicola dorei
[6] = tested on: Phocaeicola dorei; assay: Effect on growth of Bacteroides dorei JRO3 assessed as microbial growth at 100 uM measured at 30 mins interval with 15 secs shaking for up to 48 hrs in presence of maltose by spectrophotometric analysis relative to untreated control; format: organism-based; settings: in vivo
[7] = Inhibition of starch utilizing system in Bacteroides dorei JRO2 assessed as microbial growth at 100 uM measured at 30 mins interval with 15 secs shaking for up to 48 hrs in presence of pullulan by spectrophotometric analysis relative to untreated control; set-up: scale not given: the % may be the effect or the level left; settings: Phocaeicola dorei
[8] = Inhibition of starch utilization system in Bacteroides dorei JRO3 assessed as reduction in bacterial growth at 0.1 uM after 14 hrs in presence of potato starch by spectrophotometric analysis; settings: Phocaeicola dorei
[9] = Inhibition of starch utilizing system in Bacteroides dorei JRO3 assessed as microbial growth at 100 uM measured at 30 mins interval with 15 secs shaking for up to 48 hrs in presence of pullulan by spectrophotometric analysis relative to untreated control; set-up: scale not given: the % may be the effect or the level left; settings: Phocaeicola dorei
[10] = tested on: Phocaeicola dorei; assay: Effect on growth of Bacteroides dorei JRO2 assessed as microbial growth at 100 uM measured at 30 mins interval with 15 secs shaking for up to 48 hrs in presence of glucose by spectrophotometric analysis relative to untreated control; format: organism-based; settings: in vivo
[11] = tested on: Phocaeicola dorei; assay: Effect on growth of Bacteroides dorei JRO1 assessed as microbial growth at 100 uM measured at 30 mins interval with 15 secs shaking for up to 48 hrs in presence of maltose by spectrophotometric analysis relative to untreated control; format: organism-based; settings: in vivo
[12] = Inhibition of starch utilizing system in Bacteroides dorei JRO4 assessed as microbial growth at 100 uM measured at 30 mins interval with 15 secs shaking for up to 48 hrs in presence of pullulan by spectrophotometric analysis relative to untreated control; set-up: scale not given: the % may be the effect or the level left; settings: Phocaeicola dorei
[13] = Inhibition of starch utilization system in Bacteroides dorei JRO3 assessed as bacterial growth at 5 uM after 14 hrs in presence of potato starch by spectrophotometric analysis relative to untreated control; set-up: scale not given: the % may be the effect or the level left; settings: Phocaeicola dorei
[14] = Inhibition of starch utilization system in Bacteroides dorei JRO3 assessed as bacterial growth at 0.5 uM after 14 hrs in presence of potato starch by spectrophotometric analysis relative to untreated control; set-up: scale not given: the % may be the effect or the level left; settings: Phocaeicola dorei
[15] = Inhibition of starch utilization system in Bacteroides dorei JRO3 assessed as increase in doubling time at 10 uM in presence of pullulan by spectrophotometric analysis; settings: Phocaeicola dorei
[16] = Inhibition of starch utilizing system in Bacteroides dorei JRO1 assessed as microbial growth at 100 uM measured at 30 mins interval with 15 secs shaking for up to 48 hrs in presence of pullulan by spectrophotometric analysis relative to untreated control; set-up: scale not given: the % may be the effect or the level left; settings: Phocaeicola dorei
[17] = Inhibition of starch utilizing system in Bacteroides dorei JRO4 assessed as microbial growth at 100 uM measured at 30 mins interval with 15 secs shaking for up to 48 hrs in presence of potato starch by spectrophotometric analysis relative to untreated control; set-up: scale not given: the % may be the effect or the level left; settings: Phocaeicola dorei
[18] = tested on: Phocaeicola dorei; assay: Effect on growth of Bacteroides dorei JRO4 assessed as microbial growth at 100 uM measured at 30 mins interval with 15 secs shaking for up to 48 hrs in presence of glucose by spectrophotometric analysis relative to untreated control; format: organism-based; settings: in vivo
[19] = tested on: Phocaeicola dorei; assay: Effect on growth of Bacteroides dorei JRO2 assessed as microbial growth at 100 uM measured at 30 mins interval with 15 secs shaking for up to 48 hrs in presence of maltose by spectrophotometric analysis relative to untreated control; format: organism-based; settings: in vivo
[20] = Inhibition of starch utilizing system in Bacteroides dorei JRO2 assessed as microbial growth at 100 uM measured at 30 mins interval with 15 secs shaking for up to 48 hrs in presence of potato starch by spectrophotometric analysis relative to untreated control; set-up: scale not given: the % may be the effect or the level left; settings: Phocaeicola dorei
[21] = Inhibition of starch utilizing system in Bacteroides dorei JRO3 assessed as microbial growth at 100 uM measured at 30 mins interval with 15 secs shaking for up to 48 hrs in presence of potato starch by spectrophotometric analysis relative to untreated control; set-up: scale not given: the % may be the effect or the level left; settings: Phocaeicola dorei
[22] = tested on: Phocaeicola dorei; assay: Effect on growth of Bacteroides dorei JRO3 assessed as microbial growth at 100 uM measured at 30 mins interval with 15 secs shaking for up to 48 hrs in presence of glucose by spectrophotometric analysis relative to untreated control; format: organism-based; settings: in vivo
[23] = Inhibition of starch utilization system in Bacteroides dorei JRO3 assessed as bacterial growth at 1 uM after 13.5 hrs in presence of pullulan by spectrophotometric analysis relative to untreated control; set-up: scale not given: the % may be the effect or the level left; settings: Phocaeicola dorei
[24] = Inhibition of starch utilization system in Bacteroides dorei JRO3 assessed as bacterial growth at 0.5 uM after 13.5 hrs in presence of pullulan by spectrophotometric analysis relative to untreated control; set-up: scale not given: the % may be the effect or the level left; settings: Phocaeicola dorei
[25] = Inhibition of starch utilization system in Bacteroides dorei JRO3 assessed as bacterial growth at 5 uM after 13.5 hrs in presence of pullulan by spectrophotometric analysis relative to untreated control; set-up: scale not given: the % may be the effect or the level left; settings: Phocaeicola dorei
[26] = Inhibition of starch utilization system in Bacteroides dorei JRO3 assessed as increase in lag time at 5 uM up to 48 hrs in presence of pullulan by spectrophotometric analysis; settings: Phocaeicola dorei
[27] = Inhibition of starch utilization system in Bacteroides dorei JRO3 assessed as reduction in bacterial growth at 0.1 uM after 13.5 hrs in presence of pullulan by spectrophotometric analysis; settings: Phocaeicola dorei
[28] = tested on: Phocaeicola dorei; assay: Effect on growth of Bacteroides dorei JRO4 assessed as microbial growth at 100 uM measured at 30 mins interval with 15 secs shaking for up to 48 hrs in presence of maltose by spectrophotometric analysis relative to untreated control; format: organism-based; settings: in vivo

## C[C@H]1O[C@H](O[C@H]2[C@H](O)[C@@H](O)[C@@H](O[C@H]3[C@H](O)[C@@H](O)C(O)O[C@@H]3CO)O[C@@H]2CO)[C@H](O)[C@@H](O)[C@@H]1N[C@H]1C=C(CO)[C@@H](O)[C@H](O)[C@H]1O (stereo partly drawn) [ACARBOSE]
[1]
  inhibition: inactive
[2]
  Activity: 100.7%
[3]
  Activity: 28.2%
[4]
  Activity: 3.9%
[5]
  inhibition: Active
[6]
  Activity: 123.3%
[7]
  Activity: 10.1%
[8]
  inhibition: inactive
[9]
  Activity: 10.4%
[10]
  Activity: 100%
[11]
  Activity: 103%
[12]
  Activity: 4.8%
[13]
  Activity: 6.6%
[14]
  Activity: 59.9%
[15]
  inhibition: Active
[16]
  Activity: 6.5%
[17]
  Activity: 2.4%
[18]
  Activity: 105.8%
[19]
  Activity: 99.4%
[20]
  Activity: 3.7%
[21]
  Activity: 2.6%
[22]
  Activity: 118.7%
[23]
  Activity: 21.3%
[24]
  Activity: 49.9%
[25]
  Activity: 11.2%
[26]
  inhibition: Active
[27]
  inhibition: inactive
[28]
  Activity: 71.8%
